Columns and labels:
[1] = molecular target: SOS1:KRAS (G12C) interaction (Homo sapiens (Human), UniProt Q07889); assay: SOS1 KRas(G12C) FRET Assay; assay type: binding; conditions: 0.5 nM His10-SOS1 (res. 564-1049), 2.5 nM GST-KRAS G12C (res. 1-169), 2 hrs at RT
Summary of the method: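 GST-KRAS G12C (res. 1-169) at 2.5 nM and His10-SOS1 (res. 564-1049) at 0.5 nM, final, in PBS with 0.1% BSA, 5 mM MgCl2, 100 mM KF, 5 mM DTT and 0.5% DMSO. After 2 h at RT, FRET read at 665/615 nm and normalized to DMSO and no-SOS1 controls. IC50 by non-linear regression.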

human SOS1 = human SOS1 (Homo sapiens (Human), UniProt Q07889); assay: Surface Plasmon Resonance (SPR) SOS1 Binding Assay; conditions: biotinylated SOS1 (res. 564-1049), Biacore 8K, 25° C., kinetic or steady state fit, 1:1 binding; read-out: hSOS1 KD
Description: Binding to SOS1 was measured using a SPR assay with purified recombinant human SOS1 substrate (res. 564-1049 with N-terminal Avi tag; purified and biotinylated based on Hillig, et al., Proc Natl Acad Sci USA (2019); 116(7):2551-2560). SPR measurements were performed on a Biacore 8K SPR instrument (GE Healthcare, Sweden). Assays were performed at 25° C. using Series S SA sensor chips pre-coated with streptavidin (GE Healthcare, Cat. BR100531). Biotinylated SOS1 diluted in sample buffer (20 mM Tris HCI, 150 mM NaCl, 1 mM DTT, 0.05% TWEEN 20, 1 mM MgCh, pH 8.0) was captured to one flow cell of the chip to about 3,000 resonance units (RU) using sample buffer supplemented with 5% DMSO as a running buffer. Serial dilutions of the assayed compounds in the running buffer at 100, 50 or 0.5 µM were injected for 60 s at a flow rate of 30 µL/min and association phases were recorded. Dissociation of the samples was monitored for 600 s. Data processing was performed using Biacore Insight Software (Biacore, GE Healthcare). Sensorgrams recorded on a SA flow cell without captured protein were subtracted from sensorgrams recorded on the SOS1 surface. Blank injections of running buffer were used for double referencing and solvent correction was applied to all sample sensorgrams to correct for buffer mismatches. KDS were estimated using a kinetic or steady state, where applicable, fitting model describing a reversible equilibrium with 1:1 binding between SOS1 and the compound.

Molecule | IC50 [1] [nM] | Kd (human SOS1) [nM]
Cc1c([C@@H](C)NC(=O)c2cn(C3CCOCC3)c(=O)cc2NC2(C)CCN(C)CC2)cccc1C(F)(F)F [Example 45, (R)-4-((1,4-dimethylpiperidin-4-yl)amino)-N-(1-(2-methyl-3-(trifluoromethyl)phenyl)ethyl)-6-oxo-1-(tetrahydro-2H-pyran-4-yl)-1,6-dihydropyridine-3-carboxamide] | 37.9 | 21
C[C@@H](NC(=O)c1cn(C2CC2)c(=O)cc1N[C@@H]1[C@@H]2CC[C@H]1CN(C)C2)c1cccc(C(F)F)c1F (single isomer, unassigned) [Example 140] | 15.2 | 7
CO[C@@H]1CN(C)CC[C@H]1Nc1cc(=O)n(C2CCOCC2)cc1C(=O)N[C@H](C)c1cccc(C(F)(F)F)c1C (single isomer, unassigned) [Example 24] | 40 | 27
Cc1c([C@@H](C)NC(=O)c2cn(C3CCOCC3)c(=O)cc2N[C@H]2CC[C@H](O)C2)cccc1C(F)(F)F [Example 13, 4-(((1S,3S)-3-hydroxycyclopentyl)amino)-N-((R)-1-(2-methyl-3-(trifluoromethyl)phenyl)ethyl)-6-oxo-1-(tetrahydro-2H-pyran-4-yl)-1,6-dihydropyridine-3-carboxamide] | 155 | 91
C[C@@H](NC(=O)c1cn([C@@H]2CCOC[C@H]2F)c(=O)cc1NC1CCN(C)CC1)c1cccc(C(F)F)c1F [Example 79, N-((R)-1-(3-(difluoromethyl)-2-fluorophenyl)ethyl)-1-((3S,4R)-3-fluorotetrahydro-2H-pyran-4-yl)-4-((1-methylpiperidin-4-yl)amino)-6-oxo-1,6-dihydropyridine-3-carboxamide] | 3.7 | 2
C[C@@H](NC(=O)c1cn(C2CCC(F)(F)CC2)c(=O)cc1N[C@H]1[C@@H]2CN(C)C[C@@H]21)c1cccc(C(F)F)c1F [Example 123, 1-(4,4-difluorocyclohexyl)-N-((R)-1-(3-(difluoromethyl)-2-fluorophenyl)ethyl)-4-(((1R,5S,6s)-3-methyl-3-azabicyclo[3.1.0]hexan-6-yl)amino)-6-oxo-1,6-dihydropyridine-3-carboxamide] | 23.1 | 15
C[C@@H](NC(=O)c1cn(C2CC2)c(=O)cc1N[C@H]1[C@@H]2CN(C)C[C@@H]21)c1cccc(C(F)F)c1F [Example 101, 1-cyclopropyl-N-((R)-1-(3-(difluoromethyl)-2-fluorophenyl)ethyl)-4-(((1R,5S,6s)-3-methyl-3-azabicyclo[3.1.0]hexan-6-yl)amino)-6-oxo-1,6-dihydropyridine-3-carboxamide] | 24 | 11
C[C@@H](NC(=O)c1cn(C2(C(F)F)CC2)c(=O)cc1NCCN(C)C)c1cccc(C(F)F)c1F [Example 61, (R)-N-(1-(3-(difluoromethyl)-2-fluorophenyl)ethyl)-1-(1-(difluoromethyl)cyclopropyl)-4-((2-(dimethylamino)ethyl)amino)-6-oxo-1,6-dihydropyridine-3-carboxamide] | 65 | 34
C[C@@H](NC(=O)c1cn(C2(C(F)F)CC2)c(=O)cc1N[C@H]1CN2CCC1CC2)c1cccc(C(F)F)c1F [Example 83, N-((R)-1-(3-(difluoromethyl)-2-fluorophenyl)ethyl)-1-(1-(difluoromethyl)cyclopropyl)-6-oxo-4-(((R)-quinuclidin-3-yl)amino)-1,6-dihydropyridine-3-carboxamide] | 25.7 | 20
N-((R)-1-(3-(difluoromethyl)-2-fluorophenyl)ethyl)-1-(1- (difluoromethyl)cyclopropyl)-4-(((1R,5S,6s)-3-methyl-3-azabicyclo[3.1.0]hexan-6-yl)amino)-6- oxo-1,6-dihydropyridine-3-carboxamide [Example 55] | 23.6 | 12
C[C@@H](NC(=O)c1cn(C23CC(F)(C2)C3)c(=O)cc1NC1[C@@H]2CC[C@H]1CN(C)C2)c1cccc(C(F)F)c1F (stereo partly drawn) [Example 137, N-((R)-1-(3-(difluoromethyl)-2-fluorophenyl)ethyl)-1-(3-fluorobicyclo[1.1.1]pentan-1-yl)-4-(((1R,5S,8r)-3-methyl-3-azabicyclo[3.2.1]octan-8-yl)amino)-6-oxo-1,6-dihydropyridine-3-carboxamide] | 35.3 | 27
C[C@@H](NC(=O)c1cn(C23CC(C)(C2)C3)c(=O)cc1N[C@H]1[C@@H]2CN(C)C[C@@H]21)c1cccc(C(F)F)c1F [Example 98, N-((R)-1-(3-(difluoromethyl)-2-fluorophenyl)ethyl)-4-(((1R,5S,6s)-3-methyl-3-azabicyclo[3.1.0]hexan-6-yl)amino)-1-(3-methylbicyclo[1.1.1]pentan-1-yl)-6-oxo-1,6-dihydropyridine-3-carboxamide] | 13.4 | 6
Cc1c([C@@H](C)NC(=O)c2cn(C3CCOCC3)c(=O)cc2N[C@H]2[C@@H]3CN(C)C[C@@H]32)cccc1C(F)(F)F [Example 26, N-((R)-1-(2-methyl-3-(trifluoromethyl)phenyl)ethyl)-4-(((1R,5S,6s)-3-methyl-3-azabicyclo[3.1.0]hexan-6-yl)amino)-6-oxo-1-(tetrahydro-2H-pyran-4-yl)-1,6-dihydropyridine-3-carboxamide] | 27.1 | 11
C[C@@H](NC(=O)c1cn(C23CC(C2)C3)c(=O)cc1N[C@H]1[C@@H]2CN(C)C[C@@H]21)c1cccc(C(F)F)c1F [Example 90, 1-(bicyclo[1.1.1]pentan-1-yl)-N-((R)-1-(3-(difluoromethyl)-2-fluorophenyl)ethyl)-4-(((1R,5S,6s)-3-methyl-3-azabicyclo[3.1.0]hexan-6-yl)amino)-6-oxo-1,6-dihydropyridine-3-carboxamide] | 13.4 | 9

Second part, the molecule after the results:

IC50 [1] [nM] | Kd (human SOS1) [nM] | Molecule
7.4 | 6 | C[C@@H](NC(=O)c1cn([C@H]2CCC2(F)F)c(=O)cc1N[C@H]1[C@@H]2CN(C)C[C@@H]21)c1cccc(C(C)(F)F)c1F (single isomer, unassigned) [Example 148]
16.8 | 19 | C[C@@H](NC(=O)c1cn(C23CC(C(F)(F)F)(C2)C3)c(=O)cc1N[C@H]1[C@@H]2CN(C)C[C@@H]21)c1cccc(C(F)F)c1F [Example 106, N-((R)-1-(3-(difluoromethyl)-2-fluorophenyl)ethyl)-4-(((1R,5S,6s)-3-methyl-3-azabicyclo[3.1.0]hexan-6-yl)amino)-6-oxo-1-(3-(trifluoromethyl)bicyclo[1. 1.1]pentan-1-yl)-1,6-dihydropyridine-3-carboxamide]
22.1 | 17 | C[C@@H](NC(=O)c1cn(C2(C(F)F)CCC2)c(=O)cc1N[C@H]1[C@@H]2CN(C)C[C@@H]21)c1cccc(C(F)F)c1F [Example 131, N-((R)-1-(3-(difluoromethyl)-2-fluorophenyl)ethyl)-1-(1-(difluoromethyl)cyclobuty 1)-4-(((1R,5S,6s)-3-methyl-3-azabicyclo[3.1.0]hexan-6-yl)amino)-6-oxo-1,6-dihydropyridine-3-carboxamide]
553 | 186 | Cc1c([C@@H](C)NC(=O)c2cn(C3CCOCC3)c(=O)cc2NC2CCOCC2)cccc1C(F)(F)F [Example 42, (R)-N-(1-(2-methyl-3-(trifluoromethyl)phenyl)ethyl)-6-oxo-1-(tetrahydro-2H-pyran-4-yl)-4-((tetrahydro-2H-pyran-4-yl)amino)-1,6-dihydropyridine-3-carboxamide]
8.4 | 3 | C[C@@H](NC(=O)c1cn(C2CC3(CC3)C2)c(=O)cc1N[C@H]1[C@@H]2CN(C)C[C@@H]21)c1cccc(C(F)F)c1F [Example 107, N-((R)-1-(3-(difluoromethyl)-2-fluorophenyl)ethyl)-4-(((1R,5S,6s)-3-methyl-3-azabicyclo[3.1.0]hexan-6-yl)amino)-6-oxo-1-(spiro[2.3]hexan-5-yl)-1,6-dihydropyridine-3-carboxamide]
59.6 | 27 | Cc1c([C@@H](C)NC(=O)c2cn(C3CCOCC3)c(=O)cc2NCCN(C)C)cccc1C(F)(F)F [Example 2, (R)-4-((2-(dimethylamino)ethyl)amino)-N-(1-(2-methyl-3-(trifluoromethyl)phenyl)ethyl)-6-oxo-1-(tetrahydro-2H-pyran-4-yl)-1,6-dihydropyridine-3-carboxamide]
48.6 | 34 | C[C@@H](NC(=O)c1cn(C2(C(F)F)CC2)c(=O)cc1N[C@H]1CCN(C)C[C@@H]1F)c1cccc(C(F)F)c1F (single isomer, unassigned) [Example 66]
